Measurements from patent publication US20210260010A1, “COMPOSITIONS AND METHODS FOR THE REDUCTION OR TREATMENT OF INFLAMMATION” (AXCELLA HEALTH INC., priority 2018, published 2021).

How the values were obtained:
[1] = test system: MCP1/CCL2; assay: MCP1/CCL2 secretion by primary human hepatocytes exposed to free fatty acids and TNF-α (ELISA); type: cell-based; details: for MCP1 expression relative to Control- Donor 1, Mean: donor 1 hepatocytes; for MCP1 expression relative to Control- Donor 1, Mean / MCP1 expression relative to Control- Donor 2, Mean: FFA + TNF-α, baseline subtracted; for MCP1 expression relative to Control- Donor 2, Mean: donor 2 hepatocytes; for MCP1/CCL2 secretion (baseline subtracted): primary human hepatocytes from two healthy donors, FFA 250 uM + TNF-α 1 ng/ml
Method: Hepatocyte lipotoxicity appears to be a central driver of hepatic cellular injury via oxidative stress and endoplasmic reticulum (ER) stress. The ability of amino acids to influence steatosis (lipid accumulation) and inflammation in hepatocytes was assessed using human primary hepatocytes (Lonza, TRL).
Primary hepatocytes lot nos. from two healthy human donors were seeded on day 0 at density of 6e04 cells in 96 well optical microplates (Thermofisher) in hepatocyte plating media (William's E medium (Gibco) supplemented with 10% heat-inactivated FBS (Atlanta Bio), 2 mM Glutamax (Gibco) and 0.2% Primocin (InVivoGen) and incubated for 6 hours at 37° C., 5% CO2. After 6 hours, cells were washed twice and incubated overnight at 37° C., 5% CO2 with Hepatocytes defined medium (Corning) supplemented with 2 mM Glutamax (Gibco) and 1× Penicillin/Streptomycin. On day 1, cells were washed twice and incubated for 24 h in the hepatocyte culture media in the same conditions described above.
On day 2, cells were washed twice with DPBS 1× (Gibco) and maintained in amino acid-free WEM (US Biologicals) containing a defined custom amino acid concentration based on the mean physiological concentrations in blood. The values are published in the Human Metabolome Database (Wishart D S, Tzur D, Knox C, et al., HMDB: the Human Metabolome Database. Nucleic Acids Res. January 2007; 35(Database issue):D521-6. 17202168; which is hereby incorporated by reference in its entirety). This custom media is supplemented with 11 mM Glucose, 0.272 mM Sodium Pyruvate, and a dose curve of defined amino acid compositions (i.e., vehicle, LIVRQ+N-acetylcysteine, LIVRQ, RQ+N-acetylcysteine, N-acetylcysteine alone, LIV, or individually with L-Leucine, L-Isoleucine, L-Valine, L-Arginine, L-Glutamine, and L-Cysteine) at various ranges of concentrations. Cells were maintained in this defined media for 24 hours at 37° C., 5% CO2.
After pre-treatment, cells were exposed to free fatty acids (FFA) at 250 uM with a ratio of 2:1 (Oleate:Palmitate) supplemented with TNF-α (Thermofisher) at 1 ng/ml or vehicle. Cells were incubated with the FFAs mixture and the different amino acids combinations for 24 hours at 37° C., 5% CO2. After 24 hours incubation, media was removed for cytokine analysis and replaced by fresh media containing the same stimulus conditions and amino acid concentrations. Cells were incubated for an additional 48 hours for a total of 72 hours of FFA and TNFα stimulation.
Human CCL2 (MCP-1) was measured by ELISA (Human […] DuoSet ELISA, R&D Systems) at ⅕ or 1/10 dilution in 1× Reagent Diluent (Reagent Ancillary Kit 2, R&D Systems). Data were normalized to the specific per well cell density determined by nuclei count stained by Hoechst 3342 (Life technologies) in the fluorescence microscopy described below.

[2] = test system: CCL18; assay: IL-4 induced CCL18 secretion in primary human monocyte-derived macrophages (ELISA); type: cell-based; details: for Donor 1 CCL18 Measurements Mean / Donor 2 CCL18 Measurements Mean: relative to vehicle control; for CCL18 Measurements: Mean (fold change relative to vehicle control): Donor 3, IL-4 induced; for IL-4 induced CCL18 secretion (fold change relative to vehicle control): macrophages; for Donor 2 CCL18 Measurements Mean / IL-4 induced CCL18 secretion (fold change relative to vehicle control): Donor 2
Method: Lymphocytes were purified from unpurified buffy coats (Research Blood Components) using Lymphocyte Separation Medium (Corning). After centrifugation, the PBMC layer was extracted and rinsed several times using Dulbecco's phosphate-buffered saline (DPBS; Gibco). After straining PBMCs through a 70 uM cell strainer, cells were resuspended and counted using a Cellometer K2 automated cell counter.
CD14+ cells were selected using EasySep™ Human CD14 Positive Selection Kit II ([…] Technologies) according to manufacturer-supplied protocols. Following isolation CD14+ cells were seeded into 10 cm tissue culture plates and differentiated into macrophages using M-CSF (Peprotech).
On day 0, primary human PBMC derived macrophages were seeded in Dulbecco's Modified Eagle Medium (DMEM) (Gibco) supplemented with penicillin-streptomycin (Hyclone) and 10% heat inactivated fetal bovine serum (HI-FBS) (Atlanta Bio) into 96-well microplates (ThermoFisher) and incubated overnight at 37° C., 5% CO2. On day 1, cells were washed once with DPBS and then treated with: • a. Amino acid free DMEM (US Biologicals) containing a defined custom amino acid concentration based on the mean physiological concentrations in blood based on values published in the Human Metabolome Database (HMDB), with 6 mM glucose, 1 mM sodium pyruvate, 10 mM HEPES, penicillin-streptomycin; or • b. The same medium described above with one amino acid or amino acid combination at various concentrations
On day 2, cells were treated with the same mediums described above supplemented with recombinant human interleukin-4 (IL-4; Peprotech). Control wells were treated with tofacitinib (Tocris) and IL-4, PBS with IL-4, or phosphate buffered saline (PBS) alone.
On day 3, the supernatant was collected and immediately frozen in −80° C. freezer. Cells were washed once with DPBS and viability was assessed using the WST-8 Cell Proliferation Cytotoxicity Assay (Dojindo) according to manufacturer-supplied protocol. Following the assay, cells were washed twice with PBS and fixed with 4% paraformaldehyde. Protein levels in supernatant samples were analyzed by ELISA for CCL18 using commercially available kits (R&D Systems) according to manufacturer-supplied protocols.

[3] = Conc. 234 μM (baseline comparator)
[4] = Conc. 66 μM (baseline comparator)

SMILES: CC(C)[C@H](N)C(=O)O [Valine, L-Valine]
- MCP1 expression relative to Control- Donor 1, Mean [1, 3]: −2.4E−15
- MCP1 expression relative to Control- Donor 2, Mean [1, 3]: −1.4E−14
- MCP1 expression relative to Control- Donor 1, Mean ([1]; Conc. 4684 μM): 23.6867
- MCP1 expression relative to Control- Donor 2, Mean ([1]; Conc. 4684 μM): 10.79
- MCP1 expression relative to Control- Donor 1, Mean ([1]; Conc. 11710 μM): 77.73
- MCP1 expression relative to Control- Donor 2, Mean ([1]; Conc. 11710 μM): 38.25
- MCP1 expression relative to Control- Donor 1, Mean ([1]; Conc. 23420 μM): 14.17
- MCP1 expression relative to Control- Donor 2, Mean ([1]; Conc. 23420 μM): −30.7921
- MCP1/CCL2 secretion (baseline subtracted) [1]: did not have an effect
- Donor 1 CCL18 Measurements Mean ([2]; Conc. 234 μM): 1.109 fold change
- Donor 1 CCL18 Measurements Mean ([2]; Conc. 4684 μM): 1.264 fold change
- Donor 1 CCL18 Measurements Mean ([2]; Conc. 11710 μM): 1.442 fold change
- Donor 1 CCL18 Measurements Mean ([2]; Conc. 23420 μM): 0.9491 fold change
- Donor 2 CCL18 Measurements Mean ([2]; Conc. 234 μM): 1.255 fold change
- Donor 2 CCL18 Measurements Mean ([2]; Conc. 4684 μM): 1.545 fold change
- Donor 2 CCL18 Measurements Mean ([2]; Conc. 11710 μM): 1.998 fold change
- Donor 2 CCL18 Measurements Mean ([2]; Conc. 23420 μM): 2.269 fold change
- CCL18 Measurements: Mean (fold change relative to vehicle control) ([2]; Conc. 234 μM): 0.7896 fold change
- CCL18 Measurements: Mean (fold change relative to vehicle control) ([2]; Conc. 4684 μM): 0.9781 fold change
- CCL18 Measurements: Mean (fold change relative to vehicle control) ([2]; Conc. 11710 μM): 0.9976 fold change
- CCL18 Measurements: Mean (fold change relative to vehicle control) ([2]; Conc. 23420 μM): 1.082 fold change
- IL-4 induced CCL18 secretion (fold change relative to vehicle control) [2]: significantly increased

SMILES: CC[C@H](C)[C@H](N)C(=O)O [Isoleucine, L-Isoleucine]
- MCP1 expression relative to Control- Donor 1, Mean [1, 4]: −1.2E−15
- MCP1 expression relative to Control- Donor 2, Mean [1, 4]: 0
- MCP1 expression relative to Control- Donor 1, Mean ([1]; Conc. 1328 μM): −0.3073
- MCP1 expression relative to Control- Donor 2, Mean ([1]; Conc. 1328 μM): 26.62
- MCP1 expression relative to Control- Donor 1, Mean ([1]; Conc. 3320 μM): −2.417
- MCP1 expression relative to Control- Donor 2, Mean ([1]; Conc. 3320 μM): −5.645
- MCP1 expression relative to Control- Donor 1, Mean ([1]; Conc. 6639 μM): −0.205
- MCP1 expression relative to Control- Donor 2, Mean ([1]; Conc. 6639 μM): 18.62
- MCP1/CCL2 secretion (baseline subtracted) [1]: did not have an effect
- Donor 1 CCL18 Measurements Mean ([2]; Conc. 66 μM): 1.07 fold change
- Donor 1 CCL18 Measurements Mean ([2]; Conc. 1328 μM): 1.12 fold change
- Donor 1 CCL18 Measurements Mean ([2]; Conc. 3320 μM): 1.181 fold change
- Donor 1 CCL18 Measurements Mean ([2]; Conc. 6639 μM): 0.9823 fold change
- Donor 2 CCL18 Measurements Mean ([2]; Conc. 66 μM): 1.204 fold change
- Donor 2 CCL18 Measurements Mean ([2]; Conc. 1328 μM): 1.461 fold change
- Donor 2 CCL18 Measurements Mean ([2]; Conc. 3320 μM): 1.503 fold change
- Donor 2 CCL18 Measurements Mean ([2]; Conc. 6639 μM): 1.685 fold change
- CCL18 Measurements: Mean (fold change relative to vehicle control) ([2]; Conc. 66 μM): 1.056 fold change
- CCL18 Measurements: Mean (fold change relative to vehicle control) ([2]; Conc. 1328 μM): 1.026 fold change
- CCL18 Measurements: Mean (fold change relative to vehicle control) ([2]; Conc. 3320 μM): 1.431 fold change
- CCL18 Measurements: Mean (fold change relative to vehicle control) ([2]; Conc. 6639 μM): 1.111 fold change
- IL-4 induced CCL18 secretion (fold change relative to vehicle control) [2]: significantly increased
